According to patent US5227508A, “3-deoxy-3-substituted analogs of phosphatidylinositol” (Mayo Foundation for Medical Education and Research, priority 1992, dated 1993):
Like-named read-outs stand apart in the source and are kept apart here.

Key:
[1] = system: NIH 3T3 cells (wild type); test: Cell growth inhibition, wild type NIH 3T3 cells, 3 days; type: cell-based; details: for IC50: Mus musculus, NIH3T3, 72 h, 3 days
Experimental: (§1) Wild type NIH 3T3 cells and v-sis oncogene-expressing NIH 3T3 cells were maintained in bulk culture in DMEM with 10% heat inactivated calf serum and passaged using 0.05% trypsin and 0.5 mM EDTA. For cell growth assays, the cells were plated at a density of 5×10^3 cells in 1.6 cm diameter culture wells in 0.5 ml DMEM containing 10% heat inactivated calf serum and allowed to attach to the surface of the well for 24 hr. The medium was then replaced with fresh medium containing the myo-inositol analogues. […] Adherent cells were harvested after 3 days and were counted using an automated cell counter. Inhibition of cell growth caused by serial concentrations of analogues was expressed as a percentage of the number of nontreated cells at the end of the 3-day incubation period. Incubations were conducted in quadruplicate. The mean concentration of analogue required to cause 50% inhibition of cell growth (IC50)±S.E. was calculated from nonlinear least-squares regression analysis of the cell-proliferation concentration data (P. L. Appel et al., Cancer Chemother. Pharmacol., 17, 47 (1986)).

[2] = system: v-sis oncogene-expressing NIH 3T3 cells; test: Cell growth inhibition, v-sis oncogene-expressing NIH 3T3 cells, 3 days; type: cell-based; details: for IC50: Mus musculus, NIH3T3, 72 h, 3 days
Experimental: as §1

[3] = system: normal NIH 3T3 cells and several oncogene transformed NIH 3T3 cell lines; details: in culture; prior work (A. P. Kozikowski); cited from earlier work
HT-29 cells = test: Soft agar colony forming assay, HT-29 colon carcinoma, 7 days; type: cell-based; details: Homo sapiens, HT-29, 168 h, medium with 40 μM myo-inositol, read-out: IC50 for inhibition of colony formation
Experimental: The human colon carcinoma cell line, HT-29, was chosen as being representative of a clinically very important, slow growing and chemotherapy resistant human solid tumor. Many human colon cancer lines, including HT-29, have the v-sis oncogene (D. L. Trainer et al., Int. J. Cancer, 41, 287 (1988)). The growth of HT-29 cells was measured by colony formation in the soft agar colony forming assay over 7 days, with automated colony counting using a Omicon 3600 Image Analysis System, as described previously by M. C. Alley et al., 44, 549 (1984).
All soft-agarose cultures were performed in similar fashion. Each 35-mm culture dish contained a base layer consisting of 0.5 ml of standard DMEM culture medium (with 40 μM myo-inositol) with 0.5% agarose. On Day 0, cells in bulk culture were dissociated with trypsin and EDTA, washed once in growth medium, and subcultured by layering 1×10^4 viable cells in 0.5 ml of growth medium with 0.3% agarose over each base layer. Cultures were maintained in cell culture incubators at 37° C., 5% CO2 :95% air, and 100% relative humidity. On Day 1 (24 hr later), an upper layer of 1 ml of growth medium containing drug was applied to each culture. Cell lines formed a sufficient number of detectable colonies (>60 μm diameter) for analysis following 7 days of incubation. […]

[4] = - myo-inositol, ± S.E. of mean, read-out: NIH IC50
[5] = - myo-inositol, ± S.E. of mean, read-out: v-sis NIH IC50

Row | IC50 (HT-29 cells) [µM] | Compound | IC50 ([1]; + myo-inositol, read-out: NIH IC50 (class symbol)) [µM] | IC50 [1, 4] [µM] | IC50 ([2]; + myo-inositol, read-out: v-sis NIH IC50 (class symbol)) [µM] | IC50 [2, 5] [µM] | cell growth inhibitory activities [3] | IC50 ([1]; + myo-inositol, ± S.E. of mean, read-out: NIH IC50) [µM] | antagonism of growth inhibition by myo-inositol ([1]; myo-inositol at physiological concentrations, wild type NIH 3T3) | more potent inhibitor of cell growth than the simple myo-inositol analogue ([1]; wild type NIH 3T3 cells, compared with D-3-deoxy-fluoro-myo-inositol) | IC50 ([2]; + myo-inositol, ± S.E. of mean, read-out: v-sis NIH IC50) [µM] | antagonism of growth inhibition by myo-inositol ([2]; myo-inositol at physiological concentrations, v-sis NIH 3T3) | selectivity for growth inhibition of v-sis compared to wild type NIH 3T3 cell ([2]; v-sis vs wild type NIH 3T3)
1 |  | O[C@@H]1[C@@H](O)[C@H](O)[C@@H](F)[C@@H](O)[C@H]1O [3-deoxy-3-fluoro-myo-inositol, reference compound] | > 33000 | 7000 | > 33000 | 1000 | exhibit cell growth inhibitory activities |  |  |  |  |  | 
2 | 53 ± 9 | CCCCCCCCCCCCCCCC(=O)OC[C@H](COP(=O)(O)O[C@H]1[C@H](O)[C@@H](O)[C@H](O)[C@@H](F)[C@H]1O)OC(=O)CCCCCCCCCCCCCCC [Compound 7, 3-Deoxy-3-fluoro-D-myo-inositol [(R)-2,3-bis(hexadecanoyloxy)propyl] hydrogen phosphate] |  | 110 ± 20 |  | 107 ± 15 |  | 99 ± 13 | not antagonized by myo-inositol at physiological concentrations | up to 1,000 fold | 81 ± 11 | not antagonized by myo-inositol at physiological concentrations | lost
